# From ChEMBL document CHEMBL5608195, “Identification and biological evaluation of fused tetrahydroisoquinoline derivatives as Wnt/β-catenin signaling inhibitors to suppress colorectal cancer” (Eur J Med Chem, 2024)
# Calls of active or inactive are those of the source. No cut-off for these calls is given here.
# What was measured:
# [1] = Bioavailability in male ICR (CD-1) mouse at 10 mg/kg, ip measured upto 24 hrs by LC-MS/MS analysis; type: ADME, organism-based; conditions: in vivo
# RKO [2] = experiment: Antiproliferative activity against human RKO cells incubated for 24 hrs by MTT assay; type: functional, cell-based
# [3] = Tmax in male ICR (CD-1) mouse at 20 mg/kg, po measured upto 24 hrs by LC-MS/MS analysis; type: ADME, organism-based; conditions: in vivo
# [4] = Cmax in male ICR (CD-1) mouse at 20 mg/kg, po measured upto 24 hrs by LC-MS/MS analysis; type: ADME, organism-based; conditions: in vivo
# [5] = AUC (0 to infinity) in male ICR (CD-1) mouse at 20 mg/kg, po measured upto 24 hrs by LC-MS/MS analysis; type: ADME, organism-based; conditions: in vivo
# [6] = AUC (0 to infinity) in male ICR (CD-1) mouse at 5 mg/kg, iv measured upto 24 hrs by LC-MS/MS analysis; type: ADME, organism-based; conditions: in vivo
# RKO [7] = experiment: Inhibition of colony formation human RKO cells incubated for 24 hrs by crystal violet staining based analysis; type: functional, cell-based; conditions: dose 6-10 µM
# HCT-116 [8] = experiment: Induction of cell cycle arrest in human HCT-116 cells assessed as accumulation of cells at S phase incubated for 24 hrs by PI staining based flow cytometry; type: functional; conditions: dose 6-10 µM
# HCT-116 [9] = experiment: Induction of cell cycle arrest in human HCT-116 cells assessed as accumulation of cells at G2/M phase incubated for 24 hrs by PI staining based flow cytometry; type: functional; conditions: dose 6-10 µM
# RKO [10] = experiment: Induction of cell cycle arrest in human RKO cells assessed as accumulation of cells at S phase incubated for 24 hrs by PI staining based flow cytometry; type: functional; conditions: dose 6-10 µM
# RKO [11] = experiment: Induction of cell cycle arrest in human RKO cells assessed as accumulation of cells at G2/M phase incubated for 24 hrs by PI staining based flow cytometry; type: functional; conditions: dose 6-10 µM
# RKO [12] = experiment: Induction of cell cycle arrest in human RKO cells assessed as downregulation of CDK1 protein level by Western blot analysis; type: functional, cell-based
# HCT-116 [13] = experiment: Induction of cell cycle arrest in human HCT-116 cells assessed as downregulation of Cyclin D1 protein level by Western blot analysis; type: functional, cell-based
# RKO [14] = experiment: Induction of cell cycle arrest in human RKO cells assessed as downregulation of Cyclin D1 protein level by Western blot analysis; type: functional, cell-based
# HCT-116 [15] = experiment: Induction of cell cycle arrest in human HCT-116 cells assessed as downregulation of Cyclin B1 protein level by Western blot analysis; type: functional, cell-based
# HCT-116 [16] = experiment: Induction of cell cycle arrest in human HCT-116 cells assessed as downregulation of Cyclin A2 protein level by Western blot analysis; type: functional, cell-based
# RKO [17] = experiment: Inhibition of Wnt/beta-catenin signaling pathway in human RKO cells assessed as downregulation of beta-catenin expression incubated for 24 hrs by qRT-PCR analysis; type: cell-based; conditions: dose <= 10.0 µM
# RKO [18] = experiment: Inhibition of Wnt/beta-catenin signaling pathway in human RKO cells assessed as induction of beta-catenin degradation pretreated with cycloheximide followed by compound addition by Western blot analysis; type: cell-based; conditions: time <= 6.0 hrs, TDE = time-dependent effect
# HCT-116 [19] = experiment: Inhibition of Wnt/beta-catenin signaling pathway in human HCT-116 cells assessed as induction of beta-catenin degradation in presence of MG132 by Western blot analysis; type: cell-based
# RKO [20] = experiment: Inhibition of Wnt/beta-catenin signaling pathway in human RKO cells assessed as induction of beta-catenin degradation in presence of MG132 by Western blot analysis; type: cell-based
# [21] = target: Heat shock protein HSP90 (Homo sapiens) (UniProt P07900+P08238); experiment: Induction of thermal stabilization of Hsp90 in human RKO cells at 37 to 82 degree C at 100 uM incubated for 1 hr by thermal shift assay; type: cell-based
# Homo sapiens [22] = species: Homo sapiens; experiment: Induction of human HSP90 stabilization assessed as protection against pronase E-mediated hydrolysis at 25 to 50 uM incubated for 1 hr by DART assay; conditions: dose 25-50 µM
# Homo sapiens [23] = species: Homo sapiens; experiment: Binding affinity to recombinant N-terminal GST-tagged human HSP90 (1 to 224 residues) extracted from Escherichia coli BL21 (DE3) cells at 200 uM in presence of biotin probe 1 by pulldown analysis
# HCT-116 [24] = experiment: Antitumor activity against human HCT-116 cells xenografted in male BALB/c mouse assessed as tumor growth inhibition at 40 mg/kg, ip measured every two days for upto 20 days relative to control; type: functional; conditions: HCT-116, 480 h, time <= 20 day, read-out: TGI
# [25] = Toxicity in male BALB/c mouse xenografted with human HCT-116 cells assessed as effect on serum uric acid level at 10 to 40 mg/kg, ip by biochemical analysis; type: organism-based; conditions: in vivo, dose 10-40 mg/kg
# [26] = Toxicity in male BALB/c mouse xenografted with human HCT-116 cells assessed as effect on serum urea level at 10 to 40 mg/kg, ip by biochemical analysis; type: organism-based; conditions: in vivo, dose 10-40 mg/kg
# [27] = Toxicity in male BALB/c mouse xenografted with human HCT-116 cells assessed as histological change in lung at 10 to 40 mg/kg, ip by H and E staining based optical microscopic analysis; type: organism-based; conditions: in vivo, dose 10-40 mg/kg
# [28] = Toxicity in male BALB/c mouse xenografted with human HCT-116 cells assessed as histological change in kidney at 10 to 40 mg/kg, ip by H and E staining based optical microscopic analysis; type: organism-based; conditions: in vivo, dose 10-40 mg/kg
# HCT-116 [29] = experiment: Antitumor activity against human HCT-116 cells xenografted in male BALB/c mouse assessed as induction of apoptosis by measuring increase cleaved-caspase-3 protein level at 10 to 40 mg/kg, ip by Immunohistochemical staining based analysis; type: functional, organism-based; conditions: dose 10-40 mg/kg
# HCT-116 [30] = experiment: Antitumor activity against human HCT-116 cells xenografted in male BALB/c mouse assessed as decrease in Ki-67 protein level at 10 to 40 mg/kg, ip by Immunohistochemical staining based analysis; type: functional, organism-based; conditions: dose 10-40 mg/kg
smiles,measurement,setting,value
CC12c3ccc(Cl)cc3CCN1CCc1c2[nH]c2ccc(Cl)cc12 (stereo not given),bioavailability,[1],97%
same,IC50,RKO [2],7.97 µM
same,Tmax,[3],19.8 min
same,Cmax,[4],832 ng/mL
same,AUC(0-inf),[5],2720 ng·h/mL
same,AUC(0-inf),[6],1500 ng·h/mL
same,inhibition,RKO [7],Dose-Dependent Effect
same,Activity,HCT-116 [8],Dose-Dependent Effect
same,Activity,HCT-116 [9],Dose-Dependent Effect
same,Activity,RKO [10],Dose-Dependent Effect
same,Activity,RKO [11],Dose-Dependent Effect
same,Activity,RKO [12],Dose-Dependent Effect
same,Activity,HCT-116 [13],Dose-Dependent Effect
same,Activity,RKO [14],Dose-Dependent Effect
same,Activity,HCT-116 [15],Dose-Dependent Effect
same,Activity,HCT-116 [16],Dose-Dependent Effect
same,inhibition,RKO [17],Dose-Dependent Effect
same,inhibition,RKO [18],Tde
same,inhibition,HCT-116 [19],inactive
same,inhibition,RKO [20],inactive
same,Activity,[21],Active
same,Activity,Homo sapiens [22],Active
same,Activity,Homo sapiens [23],Active
same,inhibition in vivo at 40 mg/kg,HCT-116 [24],71.6%
same,Activity,[25],Non-Toxic
same,Activity,[26],Non-Toxic
same,Activity,[27],Non-Toxic
same,Activity,[28],Non-Toxic
same,Activity,HCT-116 [29],Active
same,Activity,HCT-116 [30],Active
